Laboratory results from patent US11214835B1, “Methods and compositions for diagnosis and management of neurodegerative diseases” (UNIVERSITY OF SOUTH FLORIDA, priority 2017, dated 2022).

Assays:
[1] = test system: GAS5 transcript; assay: RNA-EMSA (REMSA) of compound binding to biotin-labeled GAS5 transcript; conditions: 0.1 nM biotin-labeled GAS5, 10 nM compound, yeast tRNA, 20 min at room temperature
Experimental: RNA-EMSA was performed as previously described (see e.g. Apostolatos, H., Apostolatos, A., Vickers, T., Watson, J. E., Song, S., Vale, F., Cooper, D. R., Sanchez-Ramos, J., and Patel, N. A. (2010) Vitamin A metabolite, all-trans-retinoic acid, mediates alternative splicing of protein kinase C deltaVIII (PKCdeltaVIII) isoform via splicing factor SC35. J Biol Chem 285, 25987-25995 and Patel, R. S., Carter, G., Cooper, D. R., Apostolatos, H., and Patel, N. A. (2014) Transformer 2beta homolog (Drosophila) (TRA2B) regulates protein kinase C deltaI (PKCdeltaI) splice variant expression during 3T3L1 preadipocyte cell cycle. J Biol Chem 289, 31662-31672
Briefly, GAS5 was cloned in TOPO vector which has the T7 promoter. […] 0.1 nM of transcribed, biotin-labeled GAS5 was incubated with 10 nM G5-1397 in presence of 10U yeast tRNA and 10 units of RNase inhibitor in a final volume of 10 μl of RNA shift buffer for 20 min at room temperature and detected using Biotin Chromogenic Detection kit (ThermoFisher). […]
As the compound(s) were designed to bind to GAS5 such that it would disrupt binding to UPF1, the compound(s) ability to bind to GAS5 was examined. […] Next, it was evaluated whether NPG567 could stabilize GAS5 in HT22 cells over-expressing UPF1 (from Addgene). […] GAS5 levels were measured using SYBR Green qPCR. […]

[2] = test system: neuronal cells; assay: WST-1 cellular toxicity assay (Roche); format: cell-based
[3] = test system: GAS5; assay: GAS5 stabilization in HT22 cells over-expressing UPF1, SYBR Green qPCR; format: cell-based, mouse; conditions: pre-treated 10 nM for 1 hour, then UPF1 transfection for 24 hours
Experimental: As the compound(s) were designed to bind to GAS5 such that it would disrupt binding to UPF1, the compound(s) ability to bind to GAS5 was examined. RNA-EMSA (REMSA) was performed as previously described. Briefly, GAS5 was cloned in TOPO vector which has the T7 promoter. In vitro transcription assay was performed with biotin-label using RiboScribe kit using T7 RNA polymerase at 37° C. for 2 h in the presence of nucleotides, RNase inhibitor, and 5× transcription buffer. 0.1 nM of transcribed, biotin-labeled GAS5 was incubated with 10 nM NPG567 in presence of 10U yeast tRNA and 10 units of RNase inhibitor in a final volume of 10 μl of RNA shift buffer for 20 min at room temperature, detected using Biotin Chromogenic Detection kit (ThermoFisher). […] Next, it was evaluated whether NPG567 could stabilize GAS5 in HT22 cells over-expressing UPF1 (from Addgene). UPF1 was transiently transfected for 24 h (UPF oe) or pre-treated with NPG567 (10 nM) for 1 hour followed by transfection of UPF1 for 24 hours. GAS5 levels were measured using SYBR Green qPCR. […]
Methods in brief: Cell culture: Immortalized clonal mouse hippocampal cell line (HT22) (obtained from Salk Institute) and cultured in DMEM+10% FBS. […] The cells are checked for viability and counted and plated into T-25 flasks in neurobasal media with B27 supplement. […]

[4] = test system: C57BL/6 mice; assay: Intranasal administration to C57BL/6 mice: brain uptake and toxicity; format: in vivo, mouse; conditions: 10 nM in 10 μl
Experimental: Brain tissue was harvested after about 48 h.
Separately, NPG567 or other compounds can be administered by intranasal delivery (APP/PS1 beginning at either 6 months of age (preventive) or 12 months of age (therapeutic); dose repeated alternate days; Tg4510 beginning at either 3 months of age (preventive) or 8 months of age (therapeutic); alternate days. See FIG. 25B for a schematic of the experimental protocol. The treatment efficacy for the two modes of delivery at timeframes as shown in FIGS. 25A and 25B and described herein. Intranasal delivery is a noninvasive method that bypasses the blood-brain barrier and delivers the drug to the brain and the spinal cord, thereby avoiding any systemic side effects. […] Brain tissue was harvested after about 48 h.

## CC(C)C[C@H]1CN(C(=O)CC2CC2)CC(=O)N[C@@H](CCCCN)CN(C(=O)CCc2ccccc2)CC(=O)N[C@@H](Cc2ccccc2)CN(CC(N)=O)C(=O)CCSCc2ccc(cc2)C(=O)N[C@@H](Cc2ccccc2)CN(C(=O)CC2CC2)CC(=O)N1 [Formula G5-1397]
[1]
  binding to GAS5 transcript in RNA-EMSA: bound to GAS5 transcript

## NCCCC[C@H]1CN(C(=O)CCc2ccccc2)CC(=O)N[C@@H](CCC(=O)O)CN(CC(N)=O)C(=O)CCSCc2ccc(cc2)C(=O)N[C@@H](CCC(=O)O)CN(C(=O)CCC(=O)O)CC(=O)N[C@@H](CCCCN)CN(C(=O)CCCN)CC(=O)N1 [NPG567]
[1]
  binding to GAS5 transcript in RNA-EMSA: can bind to GAS5 transcript
[2]; WST-1 assay (Roche)
  cellular toxicity: does not cause cellular toxicity
[2]; in neurons
  toxicity to cells: not toxic to cells
[3]
  GAS5 levels with UPF1 over-expression: increases GAS5 levels
[4]; C57BL/6 mice
  toxicity to the animals: not toxic to the animals
[4]; fluorescein-labeled, 14 week C57BL/6 mice, brain harvested after about 48 h
  blood-brain barrier crossing and brain uptake: crossed the blood-brain barrier and taken up by the brain
